Laboratory results: US9365582B2, “Macrocyclic inhibitors of hepatitis C virus” (Janssen Sciences Ireland UC, priority 2006, dated 2016)

Experiments:
[1] = system: HCV replicons (Huh-7 luc/neo cells, NS3-NS5B regions of HCV type 1b); assay: Replicon assay (Huh-Luc cells, luciferase readout); assay type: cell-based; conditions: Hepatitis C virus, Huh-7, 72 h, read-out: EC50 (μM) Replicon assay
Excerpt: This model, while not a complete infection model for HCV, currently is widely accepted as an efficacious model of autonomous HCV RNA replication. […] It will be appreciated that it is important to distinguish between compounds that specifically interfere with HCV functions from those that exert cytotoxic or cytostatic effects in the HCV replicon model, and as a consequence cause a decrease in HCV RNA or linked reporter enzyme concentration. Assays are known in the field for the evaluation of cellular cytotoxicity based for example on the activity of mitochondrial enzymes using fluorogenic redox dyes such as resazurin. Furthermore, cellular counter screens exist for the evaluation of non-selective inhibition of linked reporter gene activity, such as firefly luciferase.
The compounds of formula (I) were examined for activity in the inhibition of HCV RNA replication in a cellular assay. […] In essence, the method was as follows.
The assay utilized the stably transfected cell line Huh-7 luc/neo (hereafter referred to as Huh-Luc). This cell line harbors an RNA encoding a bicistronic expression construct comprising the wild type NS3-NS5B regions of HCV type 1b translated from an internal ribosome entry site (IRES) from encephalomyocarditis virus (EMCV), preceded by a reporter portion (FfL-luciferase), and a selectable marker portion (neo^R, neomycine phosphotransferase). The construct is bordered by 5′ and 3′ NTRs (non-translated regions) from HCV type Ib. Continued culture of the replicon cells in the presence of G418 (neo^R) is dependent on the replication of the HCV RNA. The stably transfected replicon cells that express HCV RNA, which replicates autonomously and to high levels, encoding inter alia luciferase, were used for screening the antiviral compounds.
The replicon cells were plated in 384 well plates in the presence of the test and control compounds which were added in various concentrations. Following an incubation of three days, HCV replication was measured by assaying luciferase activity (using standard luciferase assay substrates and reagents and a Perkin Elmer ViewLux™ ultraHTS microplate imager). […] The inhibitory activity of the compound on luciferase activity was monitored on the Huh-Luc cells, enabling a dose-response curve for each test compound.

HCV NS3/4A protease = HCV NS3/4A protease (Hepatitis C virus genotype 1a (isolate H77) (HCV), UniProt P27958); assay: Inhibition assay (enzymatic assay) of full-length NS3 protease with NS4A cofactor; assay type: biochemical; conditions: full-length NS3 1 nM, 25 μM NS4A cofactor, 0.5 μM depsipeptide substrate, 30° C., competitive inhibition model
Chain of HCV NS3/4A protease (P27958 1027-1657): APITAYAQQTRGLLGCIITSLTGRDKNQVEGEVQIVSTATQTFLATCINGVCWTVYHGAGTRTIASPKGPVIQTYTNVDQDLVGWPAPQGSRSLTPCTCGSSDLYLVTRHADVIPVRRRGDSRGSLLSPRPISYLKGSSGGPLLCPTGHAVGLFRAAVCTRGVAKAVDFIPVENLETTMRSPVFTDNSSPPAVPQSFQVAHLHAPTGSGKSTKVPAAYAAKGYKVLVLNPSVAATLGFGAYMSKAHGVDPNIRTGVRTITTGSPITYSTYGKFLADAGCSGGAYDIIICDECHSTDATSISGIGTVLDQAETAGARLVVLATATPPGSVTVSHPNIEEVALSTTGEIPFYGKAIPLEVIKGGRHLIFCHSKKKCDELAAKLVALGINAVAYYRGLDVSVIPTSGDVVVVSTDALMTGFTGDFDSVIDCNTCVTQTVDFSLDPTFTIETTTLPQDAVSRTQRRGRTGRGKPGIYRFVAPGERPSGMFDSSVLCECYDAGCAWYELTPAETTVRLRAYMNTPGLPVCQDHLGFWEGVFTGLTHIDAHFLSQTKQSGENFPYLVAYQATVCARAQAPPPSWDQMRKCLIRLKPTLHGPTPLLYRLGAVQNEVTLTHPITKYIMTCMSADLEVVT
Protocol: The aim of this in vitro assay was to measure the inhibition of HCV NS3/4A protease complexes by the compounds of the present invention.
Inhibitors were dissolved in DMSO, sonicated for 30 sec and vortexed. The solutions were stored at −20° C. between measurements.
The final concentration of DMSO in the assay sample was adjusted to 3.3%. […] A minimum of two replicates was performed for all measurements.

Row | SMILES | EC50 [1] | Ki (HCV NS3/4A protease)
1 | CCOc1cc(O[C@@H]2C[C@H]3C(=O)N[C@]4(C(=O)NS(=O)(=O)C5CC5)C[C@H]4/C=C\CCCCN(C)C(=O)[C@@H]3C2)c2cccc(Cl)c2n1 [Compound 11, N-[17-[8-chloro-2-ethoxyquinolin-4-yloxy]-13-methyl-2,14-dioxo-3,13-diazatricyclo[13.3.0.0^4,6]octadec-7-ene-4-carbonyl](cyclopropyl)-sulfonamide] | 0.0063 µM | 0.0005 µM
2 | CCOc1cc(O[C@@H]2C[C@H]3C(=O)N[C@]4(C(=O)NS(=O)(=O)C5CC5)C[C@H]4/C=C\CCCCN(C)C(=O)[C@@H]3C2)c2ccc(OC)cc2n1 [Compound 5, N-[17-[2-ethoxy-7-methoxyquinolin-4-yloxy]-13-methyl-2,14-dioxo-3,13-diazatricyclo[13.3.0.0^4,6]octadec-7-ene-4-carbonyl](cyclopropyl)-sulfonamide] | 0.014 µM | 0.0001 µM
3 | CCOc1cc(O[C@@H]2C[C@H]3C(=O)N[C@]4(C(=O)NS(=O)(=O)C5CC5)C[C@H]4/C=C\CCCCN(C)C(=O)[C@@H]3C2)c2ccc3c(c2n1)OCO3 [Compound 15, N-[17-[8-ethoxy[1,3]dioxolo[4,5-h]quinolin-6-yloxy]-13-methyl-2,14-dioxo-3,13-diazatricyclo[13.3.0.0^4,6]octadec-7-ene-4-carbonyl]-(cyclo-propyl)sulfonamide] | 0.0035 µM | 0.0002 µM
4 | CCOc1cc(O[C@@H]2C[C@H]3C(=O)N[C@]4(C(=O)O)C[C@H]4/C=C\CCCCN(C)C(=O)[C@@H]3C2)c2ccc(OC)cc2n1 [Compound 4, 17-[2-ethoxy-7-methoxyquinolin-4-yloxy]-13-methyl-2,14-dioxo-3,13-diazatricyclo[13.3.0.0^4,6]octadec-7-ene-4-carboxylic acid] | 4.26 µM | 0.046 µM
5 | CCOc1cc(O[C@@H]2C[C@H]3C(=O)N[C@]4(C(=O)O)C[C@H]4/C=C\CCCCN(C)C(=O)[C@@H]3C2)c2ccc3c(c2n1)OCO3 [Compound 14, 17-[8-ethoxy[1,3]dioxolo[4,5-h]quinolin-6-yloxy]-13-methyl-2,14-dioxo-3,13-diazatricyclo[13.3.0.0^4,6]octadec-7-ene-4-carboxylic acid] | 3.3 µM | 0.058 µM
6 | CCOc1cc(O[C@@H]2C[C@H]3C(=O)N[C@]4(C(=O)NS(=O)(=O)C5CC5)C[C@H]4/C=C\CCCCN(C)C(=O)[C@@H]3C2)c2ccc(OC)c(Br)c2n1 [Compound 7, N-[17-[8-bromo-2-ethoxy-7-methoxyquinolin-4-yloxy]-13-methyl-2,14-dioxo-3,13-diazatricyclo[13.3.0.0^4,6]octadec-7-ene-4-carbonyl](cyclo-propyl)sulfonamide] | 0.0035 µM | 0.0001 µM
7 | CCOc1cc(O[C@@H]2C[C@H]3C(=O)N[C@]4(C(=O)O)C[C@H]4/C=C\CCCCN(C)C(=O)[C@@H]3C2)c2cccc(C)c2n1 [Compound 12, 17-[2-ethoxy-8-methylquinolin-4-yloxy]-13-methyl-2,14-dioxo-3,13-diazatricyclo[13.3.0.0^4,6]octadec-7-ene-4-carboxylic acid] | 7.5 µM | 0.017 µM
8 | CCOc1cc(O[C@@H]2C[C@H]3C(=O)N[C@]4(C(=O)NS(=O)(=O)C5CC5)C[C@H]4/C=C\CCCCN(C)C(=O)[C@@H]3C2)c2ccc3c(c2n1)CCO3 [Compound 9, N-[17-[2-ethoxy-8,9-dihydrofuro[2,3-h]quinolin-4-yloxy]-13-methyl-2,14-dioxo-3,13-diazatricyclo[13.3.0.0^4,6]octadec-7-ene-4-carbonyl](cyclo-propyl)sulfonamide] | 0.029 µM | 0.0008 µM
9 | CCOc1cc(O[C@@H]2C[C@H]3C(=O)N[C@]4(C(=O)NS(=O)(=O)C5CC5)C[C@H]4/C=C\CCCCN(C)C(=O)[C@@H]3C2)c2cccc(C)c2n1 [Compound 13, N-[17-[2-ethoxy-8-methylquinolin-4-yloxy]-13-methyl-2,14-dioxo-3,13-diazatricyclo[13.3.0.0^4,6]octadec-7-ene-4-carbonyl](cyclopropyl)-sulfonamide] | 0.014 µM | 0.0001 µM
10 | CCOc1cc(O[C@@H]2C[C@H]3C(=O)N[C@]4(C(=O)O)C[C@H]4/C=C\CCCCN(C)C(=O)[C@@H]3C2)c2cccc(Cl)c2n1 [Compound 10, 17-[8-chloro-2-ethoxyquinolin-4-yloxy]-13-methyl-2,14-dioxo-3,13-diazatricyclo[13.3.0.0^4,6]octadec-7-ene-4-carboxylic acid] | 3.81 µM | 0.0077 µM
